Assay results from the supplement of paper PMC11451515.

Assays:
Details in all cases: 48 h
NOMO1 [1] = assay: cell viability relative to DMSO control; higher = less cytotoxic
Method in brief: (§1)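 Viability is expressed as a percentage of DMSO wells within each plate, and cell-free wells serve as background. Seeding densities in the 1536-well plates (5 μl) were 500 cells/well for NOMO1 or SEM leukemia cells and 1000 cells/well for P12-Ichikawa. Each line was adapted for at least four passages in each medium. Library compounds in DMSO were pin-dosed at 47 μM to 0.79 nM (11 points, threefold), and CellTiter-Glo One luminescence was read after 48 h at 37°C.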

P12-Ichikawa [2] = assay: as above
Method in brief: as §1

SEM cells [3] = assay: as above
Method in brief: as §1

NOMO1 [4] = assay: AUC of viability dose-response curve (% viability x log10 dose units); higher = less sensitive
Method in brief: (§2)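 In 1536-well plates, leukemia cells adapted to each medium (500 or 1000 cells/well) were exposed for 48 h at 37°C to library compounds in DMSO across 11 threefold doses, 47 μM down to 0.79 nM. Viability was read by CellTiter-Glo One luminescence and normalised per plate to DMSO and cell-free wells. A four-parameter log-logistic fit over log10 doses was integrated by trapezoidal rule. This yielded the area under the curve, with over-full-viability curves scaled and quality-control failures dropped.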

P12-Ichikawa [5] = assay: as above
Method in brief: as §2

SEM cells [6] = assay: as above
Method in brief: as §2

Cc1ccc(C(=O)Nc2cccc(C(F)(F)F)c2)cc1-c1ccc2nc(NCCN3CCOCC3)ncc2c1
cell viability [%]
Details | NOMO1 [1] | P12-Ichikawa [2] | SEM cells [3]
HPLM + 10% dialyzed FBS, 0.000781 µM | 128 | 110 | 115
HPLM + 10% dialyzed FBS, 0.00234 µM | 122 | 111 | 118
HPLM + 10% dialyzed FBS, 0.00702 µM | 111 | 112 | 118
HPLM + 10% dialyzed FBS, 0.0211 µM | 118 | 111 | 122
HPLM + 10% dialyzed FBS, 0.0632 µM | 118 | 116 | 107
HPLM + 10% dialyzed FBS, 0.19 µM | 126 | 109 | 109
HPLM + 10% dialyzed FBS, 0.569 µM | 117 | 107 | 114
HPLM + 10% dialyzed FBS, 1.71 µM | 108 | 92.6 | 101
HPLM + 10% dialyzed FBS, 5.12 µM | 50.7 | 85 | 51.3
HPLM + 10% dialyzed FBS, 15.4 µM | 29.5 | 64.2 | 31.6
HPLM + 10% dialyzed FBS, 46.1 µM | 10.8 | 42.6 | 8.49
RPMI 5 mM glucose + 10% FBS, 0.000781 µM | 115 | 105 | 105
RPMI 5 mM glucose + 10% FBS, 0.00234 µM | 106 | 106 | 113
RPMI 5 mM glucose + 10% FBS, 0.00702 µM | 125 | 119 | 112
RPMI 5 mM glucose + 10% FBS, 0.0211 µM | 113 | 115 | 125
RPMI 5 mM glucose + 10% FBS, 0.0632 µM | 123 | 113 | 116
RPMI 5 mM glucose + 10% FBS, 0.19 µM | 114 | 111 | 114
RPMI 5 mM glucose + 10% FBS, 0.569 µM | 116 | 113 | 110
RPMI 5 mM glucose + 10% FBS, 1.71 µM | 103 | 109 | 103
RPMI 5 mM glucose + 10% FBS, 5.12 µM | 57.3 | 62.2 | 41.6
RPMI 5 mM glucose + 10% FBS, 15.4 µM | 32.7 | 50.3 | 15.7
RPMI 5 mM glucose + 10% FBS, 46.1 µM | 10.3 | 31.7 | 7.56
RPMI 5 mM glucose + 10% dialyzed FBS, 0.000781 µM | 129 | 110 | 109
RPMI 5 mM glucose + 10% dialyzed FBS, 0.00234 µM | 116 | 107 | 101
RPMI 5 mM glucose + 10% dialyzed FBS, 0.00702 µM | 115 | 107 | 94.5
RPMI 5 mM glucose + 10% dialyzed FBS, 0.0211 µM | 124 | 105 | 97
RPMI 5 mM glucose + 10% dialyzed FBS, 0.0632 µM | 118 | 116 | 124
RPMI 5 mM glucose + 10% dialyzed FBS, 0.19 µM | 113 | 107 | 92.8
RPMI 5 mM glucose + 10% dialyzed FBS, 0.569 µM | 114 | 103 | 117
RPMI 5 mM glucose + 10% dialyzed FBS, 1.71 µM | 102 | 92.5 | 97.3
RPMI 5 mM glucose + 10% dialyzed FBS, 5.12 µM | 54.2 | 73.7 | 35.8
RPMI 5 mM glucose + 10% dialyzed FBS, 15.4 µM | 33.4 | 49.3 | 15.9
RPMI 5 mM glucose + 10% dialyzed FBS, 46.1 µM | 11.6 | 30.5 | 6.55

AUC of viability dose-response curve
Details | NOMO1 [4] | P12-Ichikawa [5] | SEM cells [6]
HPLM + 10% dialyzed FBS | 384 | 418 | 384
RPMI 5 mM glucose + 10% FBS | 388 | 408 | 378
RPMI 5 mM glucose + 10% dialyzed FBS | 384 | 408 | 378
